# Laboratory results reported in patent US8361970B2, “Growth factor binding molecules” (University of South Florida, priority 2000, dated 2013).
# Several values for one entry are separate records, joined by “and”; a condition that tells them apart may be missing. Equal values may be shown once. Read-outs that look alike come from different tables or passages of the source.
# Columns and labels:
# [1] = test system: PDGF-stimulated Erk1/Erk2 activation; assay: Inhibition of PDGF-stimulated activation of MAPK Erk1/Erk2 (p44/p42) in NIH 3T3 cells; format: cell-based; details: for Inhibition of PDGF-stimulated MAPKinase activation: FIG. 13
# Experimental: (§1) Starved NIII 3T3 cells (PDGF-BB and PDGF-AA), NIH 3T3 cells overexpressing either EGFR (EGF) or Flk-1 (VEGF) are pre-treated with the indicated concentrations of GFB-111 for 5 minutes before 10 minutes of stimulation with PDGF-BB (10 ng/ml), PDGF-AA (10 ng/ml), EGF (100 ng/ml) and VEGF (50 ng/ml). Cell lysates are run on SDS-PAGE gels, then transferred to nitrocellulose and Western blotted with anti-phosphotyrosine (4G 10) or anti-phosphorylated Erk1/Erk2 (New England Biolabs).
# (§2) In other experiments, starved NIH 3T3 cells (PDGF-AA, PDGF-BB, aFGF, bFGF), NIH 3T3 cells overexpressing EGFR. IGF-1R or Flk-1 and the human breast carcinoma SkBr3 that overexpresses ErbB2 (HRGβ) are pretreated with GFB-111 (100 μM) for 5 min before 10 min stimulation with the indicated growth factors at the concentrations shown above and aFGF (10 ng/ml), bFGF (50 ng/ml), IGF-1 (50 ng/ml) and HRGβ (10 ng/ml). Cell lysates are then immunoblotted with anti-phospho Erk1/Erk2 as described above.
# [2] = test system: IGF-1 stimulated MAP kinase activation; assay: Inhibition of IGF-1 stimulated MAP kinase (p42/p44) activation in IGFR/3T3 cells; format: cell-based
# Experimental: as §2
# The ability of the GFB library to block the ability of IGF-1 to stimulate the IFG-1 R tyrosine phosphorylation and MAP kinase activation is evaluated using the cell assay described above with IGF-1R/3T3 cells as target cell. […] A preferred embodiment of the invention is a compound that binds to an insulin-like growth factor-1, of the general structure III, wherein R is n-butyl, n-propyl, or benzyl, and X1, X2, X3, and X4 optionally comprise identical cyclic peptide loops of the general structure II, and wherein R1, R2, R3, and R4 are each amino acid side chains that define a tetrapeptide sequence, wherein said tetrapeptide is covalently attached at the amino and carboxy termini of said tetrapeptide to a 3-aminomethyl-5-aminobenzamide linking group.
# [3] = test system: angiogenesis in A-549 tumors; assay: Angiogenesis: Factor VIII immunostaining and microvessel count in A-549 tumors; format: in vivo, nude mice; details: for Microvessel count (Mean ± SD) 250X / Microvessel count (Mean ± SD) 400X: A-549 tumor
# Experimental: On the indicated termination day of each nude mouse experiment described above, (see also Table 2), the tumors are extracted and half frozen at −70° C., and half is fixed in 10% neutral buffered formalin for 6 hrs. After fixation the tissue samples are processed into paraffin blocks. Four micrometer-thick tissue sections are obtained from the paraffin blocks and stained with hematoxylin and eosin (H&E) (Richard-Allan Scientific, Kalamazoo, Mich.) using standard histologic techniques. Tissue sections are also subjected to immunostaining for Factor VIII using the avidin biotin peroxidase complex technique (Vectastatin Elite ABC Kit, Vector, Burlingame, Calif.). Rabbit polyclonal FVIII antibody (Von Willebrand Factor, Dako Corporation, Carpinteria, Calif.) is used at 1:400 dilution, following microwave antigen retrieval (4 cycles of 5 minutes each on high in 0.1M citrate buffer).
# [4] = test system: VEGF-stimulated Flk-1 tyrosine phosphorylation; assay: Inhibition of VEGF-stimulated Flk-1 tyrosine phosphorylation in Flk-1/3T3 cells; format: cell-based
# Experimental: as §1
# (§3) In order to identify molecules that would bind vascular endothelial growth factor (VEGF), Flk-1/3T3 cell-based assay is used that relies on VEGF-stimulation of its receptor, Flk-1, tyrosine phosphorylation and subsequent MAP-kinase activation. The assay used herein identical to that used for PDGF, except that NIH 3T3 cells that overexpress Flk-1 are used. GFB-116, which has four identical loops with the sequence GKGK (SEQ ID NO. 10) is shown to be very potent and selective toward blocking the ability of VEGF to stimulate Flk-1 tyrosine phosphorylation and subsequent MAP-kinase activation as measured by phospho erk-1 and erk-2 also referred to in the Table as p42 and p44 (Table 4A). A preferred embodiment of the invention is a compound that binds to a vascular endothelial growth factor, of the general structure III (above) in which R is n-butyl, n-propyl, or benzyl, and X comprise covalently attached identical cyclic peptide loops wherein R1, R2, R3, and R4 are each amino acid side chains, as broadly defined above, that define a tetrapeptide sequence, wherein said tetrapeptide is covalently attached at the amino and carboxy termini of said tetrapeptide to 3-aminomethyl-5-aminobenzamide linking group, and wherein said tetrapeptide sequence is GKGK (SEQ ID NO. 10), GDGY (SEQ ID NO. 6), or functionally related derivatives thereof.
# PDGF-BB = target: T1, PDGF-BB (Homo sapiens, UniProt P01127); assay: Binding to PDGF-BB by native PAGE / SDS-PAGE gel electrophoresis
# T1 construct: host or cells: NIH 3T3 cells carry the receptor
# Experimental: GFB-111 (50 μM) is incubated with buffer A (PBS 0.5% BSA) or PDGF-BB (1, 3 and 4µM in buffer A) at room temperature for 10 minutes. The mixtures are then loaded onto a native 4% PAGE. The gel is then stained with silver nitrate. Duplicate lanes are run in the same gel but are not stained. Bands corresponding to the boxed area are cut out of the lanes of the gel that is not stained, denatured with SDS-PAGE loading buffer (Tris 100 mM pH 6.8, 15% Glycerol, 3% SDS, 7.5% b-mercaptoethanol, 0.05% bromophenol blue), loaded onto a 4% SDS-PAGE gel and silver stained.
# The structure activity relationship results in Table 1 are consistent with GFB-111 being a PDGF-BB binding molecule. […] PDGF to its receptor on NIH 3T3 cells is determined by gel electrophoresis by mixing GFB-111 with PDGF-BB. […] FIG. 2B illustrates that the GFB-111 standard (lane 5) as well as the GFB-111 band cut out of FIG. 2A gel (lane 1) migrates on SDS-PAGE as a single band that elutes faster than the dye front. Their separation on SDS-PAGE (lane 2) is confirmed by mixing PDGF-BB standard (lane 4) and GFB-111 standard (lane 5).
# GFB-111 is incubated with increasing concentrations of PDGF-BB and the mixtures are then loaded onto native PAGE. […]
# [5] = test system: VEGF-stimulated MAP kinase activation; assay: Inhibition of VEGF-stimulated MAP kinase (p42/p44, Erk2/Erk1) activation in Flk-1/3T3 cells; format: cell-based; details: for IC50: Flk-1/3T3, VEGF stimulated
# Experimental: as §1, §2, §3
# [6] = NIH 3T3, PDGF stimulated, head p42/Erk2 (p42 for GFB-132 to 137), read-out: (IC50) Inhibition p42/Erk2
# [7] = 100 μM, IGFR/3T3, IGF-1 stimulated
# [8] = Flk-1/3T3, VEGF stimulated, read-out: (IC50) Inhibition Flk-1-Y-P
# [9] = read-out: (IC50) Inhibition p42
# [10] = read-out: (IC50) Inhibition p44
# T1 sequence (P01127 82-190 limits assumed): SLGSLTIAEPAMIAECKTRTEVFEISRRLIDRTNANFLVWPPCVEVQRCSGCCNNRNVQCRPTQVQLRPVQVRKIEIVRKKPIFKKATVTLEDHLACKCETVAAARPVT
Compound,Inhibition of PDGF-stimulated MAPKinase activation [1],"IC50 ([1]; NIH 3T3, FIG. 3A, read-out: IC50 PDGF-dependent activation of Erk1) [nM]","IC50 ([1]; NIH 3T3, FIG. 3A, read-out: IC50 PDGF-dependent activation of Erk2) [nM]","IC50 [1, 6] [nM]","% Inhibition at 100 μM p42 [2, 7] [%]","% Inhibition at 100 μM p44 [2, 7]",IGF-1-activation of Erk1/Erk2 ([2]; concentrations as high as 100 μM),"Microvessel count (Mean ± SD) 250X ([3]; 50 mpk, 50 mg/kg)","Microvessel count (Mean ± SD) 400X ([3]; 50 mpk, 50 mg/kg)",Inhibition of angiogenesis ([3]; A-549 tumors),"IC50 [4, 8] [µM]",IC50 ([4]; read-out: IC50 VEGF-stimulated Flk-1 tyrosine phosphorylation and MAPK activation) [µM],Binding to PDGF-BB (complex on native PAGE) (PDGF-BB),"IC50 [5, 9] [µM]","IC50 [5, 10] [µM]",Microvessel count (Mean ± SD) 250X ([3]; 50 mpk),Microvessel count (Mean ± SD) 400X ([3]; 50 mpk),"Inhibition of angiogenesis by microvessel counting ([3]; A-549 tumors, 50 mpk) [%]",Block of VEGF-activation of the MAPKinases Erk1 and Erk2 ([5]; FIG. 13)
CCCCOc1c2cc(C(=O)Nc3cc4cc(c3)C(=O)NCC(=O)N[C@@H](CC(=O)O)C(=O)NCC(=O)N[C@@H](Cc3ccc(O)cc3)C(=O)NC4)cc1Cc1cc(C(=O)Nc3cc4cc(c3)C(=O)NCC(=O)N[C@@H](CC(=O)O)C(=O)NCC(=O)N[C@@H](Cc3ccc(O)cc3)C(=O)NC4)cc(c1OCCCC)Cc1cc(C(=O)Nc3cc4cc(c3)C(=O)NCC(=O)N[C@@H](CC(=O)O)C(=O)NCC(=O)N[C@@H](Cc3ccc(O)cc3)C(=O)NC4)cc(c1OCCCC)Cc1cc(C(=O)Nc3cc4cc(c3)C(=O)NCC(=O)N[C@@H](CC(=O)O)C(=O)NCC(=O)N[C@@H](Cc3ccc(O)cc3)C(=O)NC4)cc(c1OCCCC)C2 [GFB-111],inhibits,800,1200,2600,−18.4,10.7%,minimally affected,3.63 ± 1.36 and 5.68 ± 1.74,2.34 ± 1.01 and 3.58 ± 1.01,strongly,5,10,does indeed contain both PDGF-BB and GFB-111,10,10,,,,
GKGK [GFB-116],does not,,,28000,,25.2% and 43.5%,,,,efficacious,0.3,,does not bind,5,5,5.56 ± 1.75,3.46 ± 1.19,70,block
